In assay [1] the target is T1, HiBit-KRAS^G12C (Homo sapiens, UniProt P01116, G12C). Description: HiBit degradation assay in MiaPaCa-2 HiBit-KRas^G12C cells. The format is cell-based. The settings on record: 24 hours; for Dmax: maximum degradation. In a few lines: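 DC50 and Dmax come from 4-parameter fits of DMSO-normalized HiBit luminescence after 24 hours' exposure at 37° C to 10 μM–20 nM compound in 0.1% or 0.5% DMSO. Cells: MiaPaCa-2 carrying one endogenously HiBit-tagged KRAS^G12C allele; concentrations causing ≥50% […] viability loss (alamar blue) excluded.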
(In general: With HiBiT, luminescence reflects the tagged protein that the partner subunit can reach.)

The target in assay [2] is T1, HiBit-KRAS^G12C. Nature of the assay: HiBit degradation assay in SW1573 HiBit-KRas^G12C cells. The format is cell-based. More on the design: expressed in transfected cells; host or cells: SW1573 (clone E6), modified pcDNA3.1 vector, TK promoter. The settings on record: 24 hours. In a few lines:
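HiBit-KRAS G12C degradation was measured after a 24 h compound exposure (titrated 10 μM–20 nM) in engineered SW1573 cells. Lytic HiBit luminescence, expressed relative to DMSO controls, yielded DC50 and Dmax from 4-parameter fits. Concentrations causing ≥50% loss in alamar blue viability were omitted as cytotoxic.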

Where [3] appears, read: MIA PaCa-2, read-out: KRas^G12C-HiBiT (MiaPaCa; 0.1% DMSO) DMax, MiaPaCa-2 HiBit-KRas^G12C cells, 0.1% DMSO.
Where [4] appears, read: SW1573, read-out: KRas^G12C-HiBit (SW1573; 0.1% DMSO) Dmax**, SW1573 HiBit-KRas^G12C, 0.1% DMSO.
Where [5] appears, read: SW1573 HiBit-KRas^G12C, 0.1% DMSO, read-out: KRas^G12C-HIBit (SW1573; 0.1% DMSO) DC50*.
[6] abbreviates: read-out: KRas^G12C-HiBiT (MiaPaCa; 0.1% DMSO) IC50, MiaPaCa-2 HiBit-KRas^G12C cells, 0.1% DMSO.
Where [7] appears, read: SW1573, SW1573 HiBit-KRas^G12C, 0.1% DMSO, read-out: KRas^G12C-HiBit (SW1573; 0.1% DMSO) Dmax**.
Setting [8] is: SW1573, SW1573 HiBit-KRas^G12C, 0.5% DMSO, read-out: KRas^G12C-HiBiT (SW1573; 0.5% DMSO) Dmax**.

T1 sequence (P01116 1-186 isoform P01116-2 G12C limits assumed): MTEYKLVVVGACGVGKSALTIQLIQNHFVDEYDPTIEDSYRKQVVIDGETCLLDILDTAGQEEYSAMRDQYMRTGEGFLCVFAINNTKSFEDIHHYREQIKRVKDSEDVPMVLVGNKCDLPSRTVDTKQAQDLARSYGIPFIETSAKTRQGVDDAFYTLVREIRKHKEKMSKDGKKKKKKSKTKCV

`C=CC(=O)N1CCN(c2nc(O[C@H](C)CN3CCC(C4CCN(CC(=O)N[C@H](C(=O)N5C[C@H](O)C[C@H]5C(=O)N[C@@H](C)c5ccc(-c6scnc6C)cc5)C(C)(C)C)CC4)CC3)nc3c(F)c(-c4cc(O)cc5ccccc45)c(Cl)cc23)CC1` [Compound 50, (2S,4R)-1-[(2S)-2-(2-{1′-[(2R)-2-{[6-chloro-8-fluoro-7-(3-hydroxynaphthalen-1-yl)-4-[4-(prop-2-enoyl)piperazin-1-yl]quinazolin-2-yl]oxy}propyl]-[4,4′-bipiperidin]-1-yl}acetamido)-3,3-dimethylbutanoyl]-4-hydroxy-N-[(1S)-1-[4-(4-methyl-1,3-thiazol-5-yl)phenyl]ethyl]pyrrolidine-2-carboxamide]: the Dmax on HiBit-KRAS^G12C [1] (setting [3]) and on HiBit-KRAS^G12C [2] (setting [4]) was 35 to 70% each time. In addition, the DC50 on HiBit-KRAS^G12C [2] (setting [5]) was above 1000 nM.

As for `C=CC(=O)N1CCN(c2nc(OCCN3CCN(CCOCC(=O)N[C@H](C(=O)N4C[C@H](O)C[C@H]4C(=O)N[C@@H](C)c4ccc(-c5scnc5C)cc4)C(C)(C)C)CC3)nc3c(F)c(-c4cc(O)cc5ccccc45)c(Cl)cc23)CC1` [Compound 51, (2S,4R)-1-[(2S)-2-(2-{2-[4-(2-{[6-chloro-8-fluoro-7-(3-hydroxynaphthalen-1-yl)-4-[4-(prop-2-enoyl)piperazin-1-yl]quinazolin-2-yl]oxy}ethyl)piperazin-1-yl]ethoxy}acetamido)-3,3-dimethylbutanoyl]-4-hydroxy-N-[(1S)-1-[4-(4-methyl-1,3-thiazol-5-yl)phenyl]ethyl]pyrrolidine-2-carboxamide], the Dmax was below 35% at HiBit-KRAS^G12C [1] (MIA PaCa-2, MiaPaCa-2 HiBit-KRas^G12C cells, 0.1% DMSO, read-out: KRas^G12C-HiBiT (MiaPaCa; 0.1% DMSO) DMax) and below 35% at HiBit-KRAS^G12C [2] (setting [7]). For the same compound, the DC50 was 100 to 1000 nM at HiBit-KRAS^G12C [1] (setting [6]) and above 1000 nM at HiBit-KRAS^G12C [2] (setting [5]).

Take `C=CC(=O)N1CCN(c2nc(O[C@H](C)CN3CCC(OCCOC4CN(CC(=O)N[C@H](C(=O)N5C[C@H](O)C[C@H]5C(=O)N[C@@H](C)c5ccc(-c6scnc6C)cc5)C(C)(C)C)C4)CC3)nc3c(F)c(-c4cc(O)cc5ccccc45)c(Cl)cc23)CC1` [Compound 53, (2S,4R)-1-[(2S)-2-(2-{3-[2-({1-[(2R)-2-{[6-chloro-8-fluoro-7-(3-hydroxynaphthalen-1-yl)-4-[4-(prop-2-enoyl)piperazin-1-yl]quinazolin-2-yl]oxy}propyl]piperidin-4-yl}oxy)ethoxy]azetidin-1-yl}acetamido)-3,3-dimethylbutanoyl]-4-hydroxy-N-[(1S)-1-[4-(4-methyl-1,3-thiazol-5-yl)phenyl]ethyl]pyrrolidine-2-carboxamide]: the DC50 on HiBit-KRAS^G12C [1] (setting [6]) is above 1000 nM; on HiBit-KRAS^G12C [2] (setting [5]), 100 to 1000 nM. Besides, at HiBit-KRAS^G12C [2] (setting [4]), the Dmax is below 35%.

In the case of `C=CC(=O)N1CCN(c2nc(O[C@H](C)CN3CCC(OCCN4CCN(CC(=O)N[C@H](C(=O)N5C[C@H](O)C[C@H]5C(=O)N[C@@H](C)c5ccc(-c6scnc6C)cc5)C(C)(C)C)CC4)CC3)nc3c(F)c(-c4cc(O)cc5ccccc45)c(Cl)cc23)CC1` [Compound 54, (2S,4R)-1-[(2S)-2-(2-{4-[2-({1-[(2R)-2-{[6-chloro-8-fluoro-7-(3-hydroxynaphthalen-1-yl)-4-[4-(prop-2-enoyl)piperazin-1-yl]quinazolin-2-yl]oxy}propyl]piperidin-4-yl}oxy)ethyl]piperazin-1-yl}acetamido)-3,3-dimethylbutanoyl]-4-hydroxy-N-[(1S)-1-[4-(4-methyl-1,3-thiazol-5-yl)phenyl]ethyl]pyrrolidine-2-carboxamide], the DC50 was above 1000 nM on HiBit-KRAS^G12C [1] (setting [6]) and below 100 nM on HiBit-KRAS^G12C [2] (setting [5]).

Regarding `C=CC(=O)N1CCN(c2nc(O[C@H](C)CN3CCN(CCOC4CCN(CC(=O)N[C@H](C(=O)N5C[C@H](O)C[C@H]5C(=O)N[C@@H](C)c5ccc(-c6scnc6C)cc5)C(C)(C)C)CC4)CC3)nc3c(F)c(-c4cc(O)cc5ccccc45)c(Cl)cc23)CC1` [Compound 55, (2S,4R)-1-[(2S)-2-{2-[4-(2-{4-[(2R)-2-{[6-chloro-8-fluoro-7-(3-hydroxynaphthalen-1-yl)-4-[4-(prop-2-enoyl)piperazin-1-yl]quinazolin-2-yl]oxy}propyl]piperazin-1-yl}ethoxy)piperidin-1-yl]acetamido}-3,3-dimethylbutanoyl]-4-hydroxy-N-[(1S)-1-[4-(4-methyl-1,3-thiazol-5-yl)phenyl]ethyl]pyrrolidine-2-carboxamide], the DC50 at HiBit-KRAS^G12C [1] (setting [6]) is above 1000 nM; on HiBit-KRAS^G12C [2] (setting [5]), 100 to 1000 nM. Besides, on HiBit-KRAS^G12C [2] (setting [4]), the Dmax is below 35%.

On to `C=CC(=O)N1CCN(c2nc(O[C@H](C)CN3CCN(CCCOC4CN(CC(=O)N[C@H](C(=O)N5C[C@H](O)C[C@H]5C(=O)N[C@@H](C)c5ccc(-c6scnc6C)cc5)C(C)(C)C)C4)CC3)nc3c(F)c(-c4cc(O)cc5ccccc45)c(Cl)cc23)CC1` [Compound 57, (2S,4R)-1-[(2S)-2-{2-[3-(3-{4-[(2R)-2-{[6-chloro-8-fluoro-7-(3-hydroxynaphthalen-1-yl)-4-[4-(prop-2-enoyl)piperazin-1-yl]quinazolin-2-yl]oxy}propyl]piperazin-1-yl}propoxy)azetidin-1-yl]acetamido}-3,3-dimethylbutanoyl]-4-hydroxy-N-[(1S)-1-[4-(4-methyl-1,3-thiazol-5-yl)phenyl]ethyl]pyrrolidine-2-carboxamide], for which the DC50 was above 1000 nM at HiBit-KRAS^G12C [1] (setting [6]) and 100 to 1000 nM on HiBit-KRAS^G12C [2] (setting [5]). Further, at HiBit-KRAS^G12C [2] (setting [4]), the Dmax was below 35%.

For the compound `C=CC(=O)N1CCN(c2nc(O[C@H](C)CN3CC(CN4CCN(CC(=O)N[C@H](C(=O)N5C[C@H](O)C[C@H]5C(=O)N[C@@H](C)c5ccc(-c6scnc6C)cc5)C(C)(C)C)CC4)C3)nc3c(F)c(-c4cc(O)cc5ccccc45)c(Cl)cc23)CC1` [Compound 59, (2S,4R)-1-[(2S)-2-{2-[4-({1-[(2R)-2-{[6-chloro-8-fluoro-7-(3-hydroxynaphthalen-1-yl)-4-[4-(prop-2-enoyl)piperazin-1-yl]quinazolin-2-yl]oxy}propyl]azetidin-3-yl}methyl)piperazin-1-yl]acetamido}-3,3-dimethylbutanoyl]-4-hydroxy-N-[(1S)-1-[4-(4-methyl-1,3-thiazol-5-yl)phenyl]ethyl]pyrrolidine-2-carboxamide], the figures for the Dmax on HiBit-KRAS^G12C [1] (setting [3]) and at HiBit-KRAS^G12C [2] (setting [4]) were below 35% and 35 to 70%, respectively. In addition, on HiBit-KRAS^G12C [2] (setting [5]), the DC50 was above 1000 nM.

Regarding `C=CC(=O)N1CCN(c2nc(OCCN3CCC(OCCOCCOCC(=O)N[C@H](C(=O)N4C[C@H](O)C[C@H]4C(=O)N[C@@H](C)c4ccc(-c5scnc5C)cc4)C(C)(C)C)CC3)nc3c(F)c(-c4cc(O)cc5ccccc45)c(Cl)cc23)CC1` [Compound 60, (2S,4R)-1-[(2S)-2-{2-[2-(2-{[1-(2-{[6-chloro-8-fluoro-7-(3-hydroxynaphthalen-1-yl)-4-[4-(prop-2-enoyl)piperazin-1-yl]quinazolin-2-yl]oxy}ethyl)piperidin-4-yl]oxy}ethoxy)ethoxy]acetamido}-3,3-dimethylbutanoyl]-4-hydroxy-N-[(1S)-1-[4-(4-methyl-1,3-thiazol-5-yl)phenyl]ethyl]pyrrolidine-2-carboxamide], the Dmax on HiBit-KRAS^G12C [1] (MIA PaCa-2, MiaPaCa-2 HiBit-KRas^G12C cells, 0.5% DMSO, read-out: KRas^G12C-HiBiT (MiaPaCa; 0.5% DMSO) DMax) was below 35%; on HiBit-KRAS^G12C [2] (setting [7]) it was below 35%; on HiBit-KRAS^G12C [2] (setting [8]), 35 to 70%. The DC50 was above 1000 nM at HiBit-KRAS^G12C [1] (setting [6]) and 100 to 1000 nM on HiBit-KRAS^G12C [2] (setting [5]).

For `C=CC(=O)N1CCN(c2nc(O[C@H](C)CN3CCC(OCCOCC(=O)N[C@H](C(=O)N4C[C@H](O)C[C@H]4C(=O)N[C@@H](C)c4ccc(-c5scnc5C)cc4)C(C)(C)C)CC3)nc3c(F)c(-c4c(O)cccc4F)c(Cl)cc23)CC1` [Compound 61, (2S,4R)-1-[(2S)-2-{2-[2-({1-[(2R)-2-{[6-chloro-8-fluoro-7-(2-fluoro-6-hydroxyphenyl)-4-[4-(prop-2-enoyl)piperazin-1-yl]quinazolin-2-yl]oxy}propyl]piperidin-4-yl}oxy)ethoxy]acetamido}-3,3-dimethylbutanoyl]-4-hydroxy-N-[(1S)-1-[4-(4-methyl-1,3-thiazol-5-yl)phenyl]ethyl]pyrrolidine-2-carboxamide], the DC50 on HiBit-KRAS^G12C [1] (setting [6]) was above 1000 nM; on HiBit-KRAS^G12C [1] (read-out: KRas^G12C-HiBiT (MiaPaCa; 0.5% DMSO) IC50, MiaPaCa-2 HiBit-KRas^G12C cells, 0.5% DMSO), above 1000 nM; at HiBit-KRAS^G12C [2] (setting [5]) it was 100 to 1000 nM; at HiBit-KRAS^G12C [2] (read-out: KRas^G12C-HiBiT (SW1573; 0.5% DMSO) IC50***, SW1573 HiBit-KRas^G12C, 0.5% DMSO), above 1000 nM. In addition, the Dmax at HiBit-KRAS^G12C [2] (setting [7]) was below 35%; on HiBit-KRAS^G12C [2] (setting [8]) it was 35 to 70%.

For the origin of these results see patent publication US20220370416A1, “COMPOUNDS AND METHODS FOR TARGETED DEGRADATION OF KRAS” (Arvinas Operations, Inc., priority 2020, published 2022).
